According to patent US20160199393A1, “METHODS OF TREATING BRAIN ISCHEMIA OR HYPOXIA” (China Medical University, priority 2015, published 2016):

Tests used:
cortical infarct [1] = test: TTC staining infarct volume in rats with CIR; assay type: in vivo, rat; details: 30 mg/kg ip for 3 days, compared to vehicle
astrocytes = test: Annexin V flow cytometric apoptosis assay after OGDR, astrocytes; assay type: cell-based, mouse; details: WT cortical cells, 24 h after reperfusion, 10 μM (SAS 500 μM)
Protocol: (§1) Annexin V staining was performed to determine cell apoptosis using the Annexin V-FITC Apoptosis Detection Kit (Sigma-Aldrich) for 10 min at room temperature according to the manufacturers instructions, and then flow cytometric analysis was performed.
(§2) The three-color staining flow cytometric assay using allophycocyanin-microtubule-associated protein 2 (MAP2) for neuron staining, phycoerythrin (PE)-GFAP for astrocyte staining and FITC-annexin V for apoptotic cell staining was performed to count the numbers of neurons, astrocytes, and apoptotic cells. FIGS. 21A and […] show the results of apoptosis in wild type (WT) and xCT^−/− cortical cells treated with OGDR at 24 h after reperfusion. *P<0.01 compared to WT without OGDR, Student's t-test. ^#P<0.01 compared to WT with OGDR, Student's t-test. From FIGS. 21A and 21B it was observed that that smaller numbers of apoptotic cells were present in xCT^−/− neurons and astrocytes after OGDR treatment.

WT cortical cells = test: Lactate dehydrogenase (LDH) level in WT cortical cells after OGD/OGDR; assay type: cell-based, mouse; details: OGDR, 24 h after reperfusion, 10 μM (SAS 500 μM)
Protocol: (§3) Primary cortical cells were prepared from cerebral cortices of wild-type C57BL/6J or homozygote xCT^−/− mouse embryos in embryonic day 17 as previously described with modification (Goldberg M P, Choi D W. Combined oxygen and glucose deprivation in cortical cell culture: calcium-dependent and calcium-independent mechanisms of neuronal injury. The Journal of neuroscience: the official journal of the Society for Neuroscience, 1993; 13(8):3510-24, which is incorporated here by reference).
The LDH assay was carried out at 24 hours after reperfusion. *P<0.01 compared to drugs-untreated cells (Un), one-way ANOVA. Error bars denote the standard deviation among triplicate experiments.

system xc− = molecular target: T1, system xc− (Mus musculus, UniProt Q9WTR6); test: Extracellular glutamate content in WT cortical cells exposed to OGDR; assay type: cell-based; details: 24 h after reperfusion, 10 μM (SAS 500 μM)
T1 construct: endogenous in cells; host or cells: primary cortical cells from E17 wild-type C57BL/6J mouse embryos, exposed to OGDR
T1 sequence (Q9WTR6 1-502): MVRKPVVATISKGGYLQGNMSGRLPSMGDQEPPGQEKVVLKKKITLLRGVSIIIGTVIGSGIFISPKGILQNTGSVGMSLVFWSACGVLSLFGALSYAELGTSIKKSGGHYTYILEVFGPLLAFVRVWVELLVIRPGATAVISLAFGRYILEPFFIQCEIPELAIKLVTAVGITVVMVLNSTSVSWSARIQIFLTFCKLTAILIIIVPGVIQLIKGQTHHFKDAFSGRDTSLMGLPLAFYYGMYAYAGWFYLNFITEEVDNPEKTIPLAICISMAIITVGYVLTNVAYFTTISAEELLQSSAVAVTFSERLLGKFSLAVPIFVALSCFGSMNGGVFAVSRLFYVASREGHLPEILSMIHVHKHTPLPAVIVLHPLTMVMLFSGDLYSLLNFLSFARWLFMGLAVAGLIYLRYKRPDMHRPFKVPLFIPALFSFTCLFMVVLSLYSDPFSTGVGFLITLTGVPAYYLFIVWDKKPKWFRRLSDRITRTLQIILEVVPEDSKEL
T1 sequence (P10852 1-526 partner): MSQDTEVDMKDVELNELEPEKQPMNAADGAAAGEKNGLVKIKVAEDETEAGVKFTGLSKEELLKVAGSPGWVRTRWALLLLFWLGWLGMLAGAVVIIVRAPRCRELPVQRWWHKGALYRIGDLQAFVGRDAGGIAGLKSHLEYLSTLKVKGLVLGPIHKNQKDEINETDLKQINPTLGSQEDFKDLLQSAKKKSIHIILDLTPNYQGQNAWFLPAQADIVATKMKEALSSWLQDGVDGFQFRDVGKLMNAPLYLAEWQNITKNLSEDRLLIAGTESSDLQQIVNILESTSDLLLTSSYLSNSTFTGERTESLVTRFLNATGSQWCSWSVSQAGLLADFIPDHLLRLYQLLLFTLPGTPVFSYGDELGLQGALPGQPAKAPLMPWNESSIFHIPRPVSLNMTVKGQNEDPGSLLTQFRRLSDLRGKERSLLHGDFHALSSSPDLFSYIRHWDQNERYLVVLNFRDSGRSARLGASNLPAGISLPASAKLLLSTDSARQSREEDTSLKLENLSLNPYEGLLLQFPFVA
Protocol: as §3

NMDAR = details: WT cortical cells, OGDR, 24 h after reperfusion; 10 μM (SAS 500 μM)
neurons = test: Annexin V flow cytometric apoptosis assay after OGDR, neurons; assay type: cell-based, mouse; details: WT cortical cells, 24 h after reperfusion, 10 μM (SAS 500 μM)
Protocol: as §1, §2

ischemic cortex = test: Microdialysis of extracellular glutamate in ischemic cortex of rats with CIR; assay type: in vivo, rat
Protocol: (§4) Eight to ten-week-old male adult male Sprague-Dawley rats, C57BL/6J mice and xCT^−/− mice were anesthetized with 1.5% isoflurane in oxygen, allowed breathing spontaneously, and body temperature was maintained at 37° C. with a heat lamp during surgery for right middle cerebral artery ligation and bilateral common carotid artery clamping as previously described (Chen S T, Hsu C Y, Hogan E L, Maricq H, Balentine J D. A model of focal ischemic stroke in the rat: reproducible extensive cortical infarction. Stroke; a journal of cerebral circulation. 1986; 17(4):738-43, which is incorporated here by reference). Animals were subjected to transient cerebral ischemia for 90 min in rats and 2 h in mice.
Samples were diluted in 20 mM borate buffer at pH 9.0 and were derivatized for 1 min with N-tert-butyloxycarbonyl-L-cysteine and o-phthaldialdehyde. Samples then were separated in a 5-mm C18 reverse-phase column (220×4.6 mm) Sheri-5 (Brownlee), and glutamate was monitored by fluorescence (334 nm excitation and 433 nm emission) using an RF-10AXL fluorescence detector (Shimadzu). Standards of glutamate were assayed before and after the dialysis samples. […]

TUNEL-positive cells = test: TUNEL histochemistry in the ipsilateral cerebral hemisphere of rats with CIR; assay type: in vivo, rat
Protocol: Animals were subjected to transient cerebral ischemia for 90 min in rats and 2 h in mice.
To detect apoptosis, a TUNEL staining Kit (DeadEnd Fluorimetric TUNEL system; Promega) was used for the TUNEL assay (Shyu W C, Lin S Z, Chiang M F, Chen D C, Su C Y, Wang H J, et al. Secretoneurin promotes neuroprotection and neuronal plasticity via the Jak2/Stat3 pathway in murine models of stroke. The Journal of clinical investigation. 2008; 118(1):133-48, which is incorporated by reference).
(§5) Rats were treated intraperitoneal injection with either vehicle, SAS (5 mg/kg/day) or the mixture of sulfapyridine (5-ASA, 3.12 mg/kg/day) and salicylate (SP, 1.72 mg/kg) for 3 days after brain ischemia.

rats with CIR = test: Neurological behavioral measurements in rats with CIR; assay type: in vivo, rat
Protocol: as §4
Behavioral assessments were performed 3 days before cerebral ischemia and 72 hours after cerebral ischemia. The tests measured body asymmetry and locomotor activity. Furthermore, grip strength was analyzed using Grip Strength Meter (TSE-Systems) as previously described with modification. In brief, the percentage of improvement in grip strength was measured on each fore limb separately and was calculated as the ratio between mean strength of 20 pulls of the side contralateral to the ischemia and the ipsilateral side. In addition, the ratio of grip strength after treatment to baseline was also calculated, and changes were presented as percent of baseline (Shyu W C, Lin S Z, Chiang M F, Chen D C, Su C Y, Wang H J, et al. Secretoneurin promotes neuroprotection and neuronal plasticity via the Jak2/Stat3 pathway in murine models of stroke. The Journal of clinical investigation. 2068; 118(1):133-48, which is incorporated by reference).
as §5

cortical infarct [2] = test: MRI infarct volume in rats with CIR; assay type: in vivo, rat; details: day 28 after reperfusion
Protocol: as §4
MRI was performed on rats under anesthesia in a General Electric imaging system (R4; GE) at 3.0 T. Brains were scanned in 6-8 coronal image slices, each 2 mm thick without any gaps. […] The area of infarct was drawn manually from slice to slice, and the volume was then calculated by internal volume analysis software (Voxtool; GE) (Shyu W C, Lin S Z, Chiang M E, Chen D C, Su C Y, Wang H J, et al. Secretoneurin promotes neuroprotection and neuronal plasticity via the Jak2/Stat3 pathway in murine models of stroke. The Journal of clinical investigation. 2008; 118(1):133-48, which is incorporated by reference). […]

CNC(=O)c1cc(Oc2ccc(NC(=O)Nc3ccc(Cl)c(C(F)(F)F)c3)cc2)ccn1 [sorafenib]
cortical infarct volume (TTC staining) (cortical infarct [1]): significantly smaller
apoptosis in astrocytes (astrocytes): inhibited
LDH levels (WT cortical cells): inhibited
OGDR-induced glutamate release (extracellular glutamate content) (system xc−): inhibited
hyperfunction of NMDAR (binding radioactivity of 18F-FSAG) (NMDAR): inhibited
apoptosis in neurons (neurons): inhibited

O=C(O)c1cc(/N=N/c2ccc(S(=O)(=O)Nc3ccccn3)cc2)ccc1O [sulfasalazine]
extracellular glutamate content in ischemic cortex (ischemic cortex; 5 mg/kg/day BID for 3 days, 4 to 72 h after reperfusion): reduction
suppression of glutamate efflux in ischemic cortex at different dosages (ischemic cortex; different dosages): inhibited CIR-induced glutamate release in a dose-dependent manner
inhibition of TUNEL-positive cells at different dosages (TUNEL-positive cells; different dosages): decreased CIR-induced apoptosis in a dose-dependent manner
number of TUNEL-positive cells (TUNEL-positive cells; ischemic penumbra, 24 h after reperfusion): significantly reduced
locomotor activity (number of vertical movements, vertical activity, vertical movement time) (rats with CIR; between 7 and 28 days after CIR, compared with controls): significantly higher
improvement in grip strength (rats with CIR; day 28 after reperfusion, compared with control groups): higher percentage of improvement
body asymmetry (rats with CIR; days 7 to 28, compared with control rats): significantly reduced
apoptosis in astrocytes (astrocytes): inhibited
cortical infarct size (MRI) (cortical infarct [2]): remarkable size reductions
LDH levels (WT cortical cells): inhibited
OGDR-induced glutamate release (extracellular glutamate content) (system xc−): inhibited
hyperfunction of NMDAR (binding radioactivity of 18F-FSAG) (NMDAR): inhibited
apoptosis in neurons (neurons): inhibited
